Test results published in patent publication US11008346B2, “Beta-lactamase inhibitors” (priority 2014, dated 2021).

Key:
[1] = system: K. pneumoniae A-1797 expressing KPC-2 and VIM-4; assay: broth microdilution MIC, K. pneumoniae KPC-2 and VIM-4; format: cell-based; settings: Fixed Mero (meropenem) 4 μg/mL
Method in brief: (§1)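 Visual MIC readout after 16-20 hours at 37° C, reflecting compound concentration that restores growth inhibition by a beta-lactam held constant at 4 μg/mL. Compound was titrated 2-fold, 32 to 0.25 μg/mL final, in cation-adjusted Mueller Hinton broth.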

KPC-2 β-lactamase = molecular target: T1, KPC-2 β-lactamase (Klebsiella pneumoniae, UniProt Q9F663); assay: β-lactamase enzyme inhibition, KPC-2; format: biochemical; settings: imipenem substrate, 300 nm; 15 min at 37° C. preincubation; read-out: IC50 KPC-2 (Class A)
T1 construct: made in house; host or cells: E. coli BL21(DE3)
T1 sequence (Q9F663 25-293, looked up): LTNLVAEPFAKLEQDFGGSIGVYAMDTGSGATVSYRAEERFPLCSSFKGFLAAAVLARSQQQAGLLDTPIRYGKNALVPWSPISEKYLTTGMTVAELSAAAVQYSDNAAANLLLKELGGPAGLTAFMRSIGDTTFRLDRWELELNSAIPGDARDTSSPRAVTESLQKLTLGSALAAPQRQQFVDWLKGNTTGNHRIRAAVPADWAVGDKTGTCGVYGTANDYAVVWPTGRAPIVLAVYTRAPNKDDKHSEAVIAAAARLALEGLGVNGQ
Method in brief: (§2)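 Native untagged β-lactamases were expressed in E. coli BL21(DE3) and purified. Enzyme was preincubated with inhibitor for 15 min at 37° C., then substrate hydrolysis was followed: nitrocefin 100 μM for p99 AmpC and OXA-1 (486 nm, 10 min), imipenem for KPC-2 (300 nm), cefotaxime for SHV-5 (260 nm). IC50 was derived from initial rates relative to uninhibited controls.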

[2] = system: K. pneumoniae 156319 expressing KPC-3; assay: broth microdilution MIC, K. pneumoniae KPC-3; format: cell-based; settings: Fixed Mero (meropenem) 4 μg/mL
Method in brief: as §1

[3] = system: E. cloacae 144200 expressing Class C P99 AmpC; assay: broth microdilution MIC, E. cloacae P99; format: cell-based; settings: Fixed CAZ (ceftazidime) 4 μg/mL
Method in brief: as §1

[4] = molecular target: T2, VIM-2 metallo β-lactamase (Pseudomonas aeruginosa, UniProt Q9K2N0); assay: β-lactamase enzyme inhibition, VIM-2; format: biochemical; settings: Nitrocefin 100 μM, 486 nm; 15 min at 37° C. preincubation; read-out: IC50 VIM-2 (Class B)
T2 construct: made in house; host or cells: E. coli BL21(DE3)
Method in brief: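 VIM-2 purified by Q sepharose anion exchange (50 mM Hepes pH 7.5, 0-600 mM NaCl gradient, two runs, >90% purity). Enzyme preincubated with inhibitor 15 min at 37° C; nitrocefin 100 μM final, absorbance at 486 nm followed 10 min. IC50 from initial hydrolysis rates versus inhibitor-free controls.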

[5] = system: S. aureus MSSA-7 producing penicillinase PC-1; assay: broth microdilution MIC, S. aureus PC-1; format: cell-based; settings: Fixed Pip (piperacillin) 4 μg/mL
From the text: (§3) To determine the ability of test compounds to potentiate the inhibition of the growth of bacterial strains that produce beta-lactamase enzymes, classic cell based broth microdilution MIC assays were employed. Six bacteria strains producing beta-lactamase enzymes were used: E. coli expressing the Class A Extended Spectrum Beta-Lactamase (ESBL) CTX-M-15, E. cloacae expressing the Class C P99, K. pneumoniae expressing the Class A carbapenemase KPC-3, P. aeruginosa expressing the Class B carbapenemase VIM-2, K pneumoniae expressing the class A carbapenemase KPC-2 and the class B carbapenemase VIM-4, and S. aureus producing the Class A penicillinase PC-1. The assay was conducted in Cation Adjusted Mueller Hinton Broth (CAMHB, BD #212322, BD Diagnostic Systems, Sparks, Md.). Bacteria strains were grown for 3-5 hours in CAMBH broth. Test compounds were added to a microtiter plate in 2-fold serial dilutions in CAMHB in a final concentration range of 32 μg/mL to 0.25 μg/ml. An overlay of CAMHB containing a Beta-lactam was added to the compounds at a final static concentration of 4 μg/ml. […] In addition to the titration of test compounds the MICs of a panel of control beta-lactams is also tested to ensure the strains are behaving consistently from test to test. Once the test compound and antibiotics are added the plates can be inoculated according to CLSI broth microdilution method. After inoculation the plates are incubated for 16-20 hours at 37° C., then the Minimal Inhibitory Concentration (MIC) of the test compound is determined visually.
(§4) Using the methodology described above, examples of the current invention were evaluated for their ability to inhibit the growth of β-lactamase-producing bacteria in the presence of a β-lactam antibiotic.
(§5) Representative results are shown in Table 4 where A represents an MIC of the fixed β-lactam antibiotic in the presence of >32 µg/mL of a β-lactamase inhibitor of exemplary compounds, B represents the MIC in the presence of between 8 and 32 µg/mL of a β-lactamase inhibitor of exemplary compounds, and C represents the MIC in the presence of ≤4 µg/mL of a β-lactamase inhibitor of exemplary compounds. NT=Not Tested.

p99 AmpC β-lactamase = molecular target: T3, p99 AmpC β-lactamase (Enterobacter cloacae, UniProt P05364); assay: β-lactamase enzyme inhibition, p99 AmpC; format: biochemical
T3 construct: made in house; host or cells: E. coli BL21(DE3)
T3 sequence (P05364 21-381): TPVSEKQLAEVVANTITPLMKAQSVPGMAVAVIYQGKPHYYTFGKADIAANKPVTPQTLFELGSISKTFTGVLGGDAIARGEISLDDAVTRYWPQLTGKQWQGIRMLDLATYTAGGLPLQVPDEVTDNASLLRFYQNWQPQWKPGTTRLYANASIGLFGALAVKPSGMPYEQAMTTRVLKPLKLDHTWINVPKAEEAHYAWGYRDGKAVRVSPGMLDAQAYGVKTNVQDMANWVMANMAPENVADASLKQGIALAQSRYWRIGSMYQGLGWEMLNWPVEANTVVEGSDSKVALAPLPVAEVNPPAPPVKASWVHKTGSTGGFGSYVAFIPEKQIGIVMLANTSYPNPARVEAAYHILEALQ
Method in brief: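 Native untagged E. cloacae p99 AmpC was expressed in E. coli BL21(DE3) and purified by cation exchange and gel filtration. Enzyme was preincubated with inhibitor at 37°C for 15 min.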

[6] = system: P. aeruginosa Ps296 expressing VIM-2; assay: broth microdilution MIC, P. aeruginosa VIM-2; format: cell-based; settings: Fixed Mero (meropenem) 4 μg/mL
From the text: as §3, §4, §5

[7] = system: E. coli ESBL4 expressing CTX-M-15; assay: broth microdilution MIC, E. coli CTX-M-15; format: cell-based; settings: Fixed CAZ (ceftazidime) 4 μg/mL
Method in brief: as §1

SHV-5 β-lactamase = molecular target: T4, SHV-5 β-lactamase (Klebsiella pneumoniae, UniProt P0A3M1); assay: β-lactamase enzyme inhibition, SHV-5; format: biochemical
T4 construct: made in house; host or cells: E. coli BL21(DE3)
T4 sequence (P0A3M1 22-286): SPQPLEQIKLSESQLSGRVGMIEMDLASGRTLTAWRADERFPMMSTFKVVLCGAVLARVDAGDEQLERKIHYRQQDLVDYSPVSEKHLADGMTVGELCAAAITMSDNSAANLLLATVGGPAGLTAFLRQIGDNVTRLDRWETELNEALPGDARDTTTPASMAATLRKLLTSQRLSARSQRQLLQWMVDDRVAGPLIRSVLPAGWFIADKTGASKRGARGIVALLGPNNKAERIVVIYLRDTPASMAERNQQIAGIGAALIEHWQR
Method in brief: as §2

OXA-1 β-lactamase = molecular target: T5, OXA-1 β-lactamase (Escherichia coli, UniProt P13661); assay: β-lactamase enzyme inhibition, OXA-1; format: biochemical; settings: Nitrocefin 100 μM, 486 nm; 15 min at 37° C. preincubation; read-out: IC50 OXA-1 (Class D)
T5 construct: made in house; host or cells: E. coli BL21(DE3)
T5 sequence (P13661 26-276): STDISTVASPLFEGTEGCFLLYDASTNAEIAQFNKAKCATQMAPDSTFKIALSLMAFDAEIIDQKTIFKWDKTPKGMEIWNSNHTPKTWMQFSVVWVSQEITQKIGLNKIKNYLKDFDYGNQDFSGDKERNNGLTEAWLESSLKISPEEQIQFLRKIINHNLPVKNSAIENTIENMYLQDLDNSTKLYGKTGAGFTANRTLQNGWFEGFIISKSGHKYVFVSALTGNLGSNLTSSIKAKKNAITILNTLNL
Method in brief: as §2

Row | Compound | MIC of exemplary compounds in presence of fixed β-lactams, K.P. A-1797 KPC-2 VIM-4 [1] | IC50 (KPC-2 β-lactamase) | MIC of exemplary compounds in presence of fixed β-lactams, K.P. 156319 KPC-3 [2] | MIC of exemplary compounds in presence of fixed β-lactams, E. cl. 144200 p99 AmpC [3] | IC50 [4] | MIC of exemplary compounds in presence of fixed β-lactams, S. aureus MSSA-7 PC-1 [5] | IC50 (p99 AmpC β-lactamase) | MIC of exemplary compounds in presence of fixed β-lactams, P. aerug. Ps296 VIM-2 [6] | MIC of exemplary compounds in presence of fixed β-lactams, E. coli ESBL4 CTX-M-15 [7] | IC50 (SHV-5 β-lactamase) | IC50 (OXA-1 β-lactamase)
1 | CNC(=O)CCC(=O)N[C@H]1Cc2cccc(C(=O)O)c2OB1O [Example 19, (R)-2-Hydroxy-3-(3-methylcarbamoyl-propionylamino)-3,4-dihydro-2H-benzo[e][1,2]oxaborinine-8-carboxylic acid] | B (B represents the MIC in the presence of between 8 and 32 g/mL of a β-lactamase inhibitor) | < 0.1 µM | C (C represents the MIC in the presence of ≤4 g/mL of a β-lactamase inhibitor) | C (C represents the MIC in the presence of ≤4 g/mL of a β-lactamase inhibitor) | 1 to 10 µM | B (B represents the MIC in the presence of between 8 and 32 g/mL of a β-lactamase inhibitor) | < 0.1 µM | A (A represents an MIC of the fixed β-lactam antibiotic in the presence of >32 g/mL of a β-lactamase inhibitor) | C (C represents the MIC in the presence of ≤4 g/mL of a β-lactamase inhibitor) | < 0.1 µM | < 0.1 µM
2 | O=C(/C=C/Cl)N[C@H]1Cc2cccc(C(=O)O)c2OB1O [Example 12, (R)-3-(3-Chloro-acryloylamino)-2-hydroxy-3,4-dihydro-2H-benzo[e][1,2]oxaborinine-8-carboxylic acid] | A (A represents an MIC of the fixed β-lactam antibiotic in the presence of >32 g/mL of a β-lactamase inhibitor) | < 0.1 µM | B (B represents the MIC in the presence of between 8 and 32 g/mL of a β-lactamase inhibitor) | C (C represents the MIC in the presence of ≤4 g/mL of a β-lactamase inhibitor) | 0.1 to 1 µM | C (C represents the MIC in the presence of ≤4 g/mL of a β-lactamase inhibitor) | < 0.1 µM | B (B represents the MIC in the presence of between 8 and 32 g/mL of a β-lactamase inhibitor) | C (C represents the MIC in the presence of ≤4 g/mL of a β-lactamase inhibitor) | < 0.1 µM | < 0.1 µM
3 | O=C(/C=C/c1cocn1)N[C@H]1Cc2cccc(C(=O)O)c2OB1O [Example 44, (R)-2-Hydroxy-3-(3-oxazol-4-yl-acryloylamino)-3,4-dihydro-2H-benzo[e][1,2]oxaborinine-8-carboxylicacid] | B (B represents the MIC in the presence of between 8 and 32 g/mL of a β-lactamase inhibitor) | < 0.1 µM | C (C represents the MIC in the presence of ≤4 g/mL of a β-lactamase inhibitor) | C (C represents the MIC in the presence of ≤4 g/mL of a β-lactamase inhibitor) | 0.1 to 1 µM | C (C represents the MIC in the presence of ≤4 g/mL of a β-lactamase inhibitor) | < 0.1 µM | C (C represents the MIC in the presence of ≤4 g/mL of a β-lactamase inhibitor) | C (C represents the MIC in the presence of ≤4 g/mL of a β-lactamase inhibitor) | < 0.1 µM | < 0.1 µM
4 | CC(CCC(=O)N[C@H]1Cc2cccc(C(=O)O)c2OB1O)=NO [Example 17, (R)-2-Hydroxy-3-(4-hydroxyimino-pentanoylamino)-3,4-dihydro-2H-benzo[e][1,2]oxaborinine-8-carboxylic acid] | B (B represents the MIC in the presence of between 8 and 32 g/mL of a β-lactamase inhibitor) | < 0.1 µM | B (B represents the MIC in the presence of between 8 and 32 g/mL of a β-lactamase inhibitor) | C (C represents the MIC in the presence of ≤4 g/mL of a β-lactamase inhibitor) | 1 to 10 µM | C (C represents the MIC in the presence of ≤4 g/mL of a β-lactamase inhibitor) | < 0.1 µM | C (C represents the MIC in the presence of ≤4 g/mL of a β-lactamase inhibitor) | C (C represents the MIC in the presence of ≤4 g/mL of a β-lactamase inhibitor) | < 0.1 µM | < 0.1 µM
5 | CC(C)CC(=O)N[C@H]1Cc2cccc(C(=O)O)c2OB1O [Example 6, (R)-2-Hydroxy-3-(3-methyl-butyrylamino)-3,4-dihydro-2H-benzo[e][1,2]oxaborinine-8-carboxylic acid] | A (A represents an MIC of the fixed β-lactam antibiotic in the presence of >32 g/mL of a β-lactamase inhibitor) | < 0.1 µM | C (C represents the MIC in the presence of ≤4 g/mL of a β-lactamase inhibitor) | C (C represents the MIC in the presence of ≤4 g/mL of a β-lactamase inhibitor) | 1 to 10 µM | C (C represents the MIC in the presence of ≤4 g/mL of a β-lactamase inhibitor) | < 0.1 µM | B (B represents the MIC in the presence of between 8 and 32 g/mL of a β-lactamase inhibitor) | C (C represents the MIC in the presence of ≤4 g/mL of a β-lactamase inhibitor) | < 0.1 µM | < 0.1 µM
6 | CC(=O)CCCC(=O)N[C@H]1Cc2cccc(C(=O)O)c2OB1O [Example 13, (R)-2-Hydroxy-3-(5-oxo-hexanoylamino)-3,4-dihydro-2H-benzo[e][1,2]oxaborinine-8-carboxylic acid] | C (C represents the MIC in the presence of ≤4 g/mL of a β-lactamase inhibitor) | 0.1 to 1 µM | C (C represents the MIC in the presence of ≤4 g/mL of a β-lactamase inhibitor) | C (C represents the MIC in the presence of ≤4 g/mL of a β-lactamase inhibitor) | 0.1 to 1 µM | C (C represents the MIC in the presence of ≤4 g/mL of a β-lactamase inhibitor) | < 0.1 µM | C (C represents the MIC in the presence of ≤4 g/mL of a β-lactamase inhibitor) | C (C represents the MIC in the presence of ≤4 g/mL of a β-lactamase inhibitor) | < 0.1 µM | < 0.1 µM
